Among the test systems are EKVX NSCLC; HCT-116 colon; HL-60(TB) leukemia; KM12 colon; MALME-3M melanoma; RXF 393 renal; SF-295 CNS; SK-OV-3 ovarian; SNB-75 CNS; IGROV1 ovarian.
Common to all, as to assay: inhibition of tumour cell growth, NCI panel, 48 h

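Briefly, cells in 96-well plates were exposed to five compound concentrations for 48 h, and endpoints were estimated by linear interpolation. GI50 = concentration required for 50% inhibition of growth. TGI: total growth inhibition.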

Take `COC1=CC(=O)C(C2(OC(C)C)OC(=O)C(Cl)=C2Cl)=CC1=O` (configuration not stated): the TGI with EKVX NSCLC was > 100 µM; in the experiment with HCT-116 colon it was > 100 µM; in the experiment on HL-60(TB) leukemia, 1.55 µM; in the experiment with KM12 colon it was > 100 µM; in the experiment on MALME-3M melanoma it was > 100 µM; in the experiment on RXF 393 renal, > 100 µM. Besides, the TGI in the experiment on SF-295 CNS, in the experiment with SK-OV-3 ovarian and in the experiment on SNB-75 CNS was > 100 µM throughout.
For `C#Cc1cccc(Nc2nc3cc([N+](=O)[O-])ccc3nc2Nc2ccc(O)cc2)c1`, the GI50 with EKVX NSCLC was 1860 nM; in the experiment on HCT-116 colon it was 1460 nM; with HL-60(TB) leukemia, 2420 nM; in the experiment with IGROV1 ovarian, 1780 nM; in the experiment on KM12 colon it was 1830 nM; with MALME-3M melanoma, 1.93 µM. Moreover, the figures for the GI50 in the experiment on RXF 393 renal, in the experiment on SK-OV-3 ovarian and in the experiment with SNB-75 CNS were 1730 nM, 2340 nM and 1.36 µM, respectively. Also, the TGI was found to be 5.26 µM in the experiment with EKVX NSCLC; 2.9 µM with HCT-116 colon; 5.63 µM in the experiment with HL-60(TB) leukemia; 4.37 µM in the experiment on IGROV1 ovarian; 3.89 µM in the experiment on KM12 colon; 4.32 µM in the experiment with MALME-3M melanoma. Moreover, the TGI in the experiment with RXF 393 renal amounted to 3.58 µM; in the experiment on SK-OV-3 ovarian it was 5.97 µM; with SNB-75 CNS it was 3.42 µM.
Turning to `Cc1ccc(-c2nc(N3CCNCC3)c3oc(-c4ccc(C)cc4)nc3n2)cc1`, the GI50 in the experiment with EKVX NSCLC was > 36300 nM; with HL-60(TB) leukemia it was 1170 nM; in the experiment with IGROV1 ovarian, 1920 nM; in the experiment with KM12 colon, 1660 nM; in the experiment on MALME-3M melanoma it was 7.23 µM; in the experiment with RXF 393 renal, 3890 nM. The GI50 in the experiment on SF-295 CNS is 12.1 µM; with SK-OV-3 ovarian, > 43200 nM; with SNB-75 CNS, 8.66 µM. Besides, the TGI with EKVX NSCLC is > 51.7 µM; in the experiment with HL-60(TB) leukemia, 3.26 µM; in the experiment with IGROV1 ovarian it was 3.81 µM; with KM12 colon, 3.2 µM; in the experiment with MALME-3M melanoma, 18.9 µM; in the experiment on RXF 393 renal it was 8.81 µM. Also, the TGI was 52.6 µM with SF-295 CNS, > 59.2 µM in the experiment with SK-OV-3 ovarian and > 32.1 µM with SNB-75 CNS.
As to `O=C(Nc1nc(=S)[nH][nH]1)C(=O)C(C(=O)c1ccc2ccccc2c1)C1OC(=O)c2ccccc21` (configuration not stated), the TGI in the experiment with EKVX NSCLC is > 100 µM; in the experiment with HCT-116 colon, 27.6 µM; in the experiment with IGROV1 ovarian, 53.7 µM; with KM12 colon it was > 100 µM; in the experiment on MALME-3M melanoma, > 100 µM; in the experiment with RXF 393 renal it was 26.8 µM. For the same molecule, the TGI in the experiment with SK-OV-3 ovarian was > 100 µM; in the experiment with SNB-75 CNS, 63.1 µM.
Take `Cc1cc2c(cc1C)[n+](=O)c(C(=O)c1ccccc1)c(C(F)F)n2[O-]`: the GI50 with EKVX NSCLC was 9430 nM; in the experiment with HCT-116 colon it was 30800 nM; in the experiment with HL-60(TB) leukemia, 3300 nM; in the experiment with IGROV1 ovarian, 15100 nM; in the experiment on KM12 colon it was 20500 nM; in the experiment with MALME-3M melanoma, 23.2 µM. In addition, the GI50 in the experiment on SF-295 CNS is 7.27 µM; in the experiment with SK-OV-3 ovarian, 54500 nM; in the experiment on SNB-75 CNS it was 60.9 µM. Besides, the TGI in the experiment with EKVX NSCLC is 44.6 µM; in the experiment with HCT-116 colon, > 100 µM; with HL-60(TB) leukemia, 18.9 µM; in the experiment with IGROV1 ovarian, > 100 µM; with KM12 colon it was > 100 µM; in the experiment on MALME-3M melanoma it was 62.9 µM. Moreover, the TGI was 42.5 µM with SF-295 CNS, > 100 µM with SK-OV-3 ovarian and > 100 µM in the experiment on SNB-75 CNS.
With `O=C(O)CSc1n[nH]c(-c2ccccc2O)n1`, the TGI in the experiment on EKVX NSCLC, with HCT-116 colon, in the experiment on HL-60(TB) leukemia, in the experiment with IGROV1 ovarian, in the experiment with MALME-3M melanoma and in the experiment on RXF 393 renal was > 100 µM each time. Moreover, the TGI with SF-295 CNS and with SNB-75 CNS was > 100 µM throughout.
In the case of `O=c1c2cccnc2ncn1CCN1CCCCC1`, the TGI in the experiment on EKVX NSCLC, with HCT-116 colon, in the experiment with IGROV1 ovarian, in the experiment with KM12 colon, in the experiment with MALME-3M melanoma and in the experiment with RXF 393 renal was > 100 µM each time. Also, the TGI in the experiment on SF-295 CNS, with SK-OV-3 ovarian and in the experiment on SNB-75 CNS was > 100 µM each time.
With `CC(=O)Nc1cc2ccc(=O)oc2cc1Cl`, the TGI with EKVX NSCLC, in the experiment with HCT-116 colon, with HL-60(TB) leukemia, in the experiment on IGROV1 ovarian, with KM12 colon and in the experiment on MALME-3M melanoma was > 100 µM each time. Moreover, the TGI with RXF 393 renal, in the experiment on SF-295 CNS and with SNB-75 CNS was > 100 µM throughout.
In the case of `CCOC(=O)n1cc(C2=C(c3ccc(OC)c(OC)c3)COC2=O)c2ccccc21`, the GI50 is 93.8 nM in the experiment with EKVX NSCLC; 48.2 nM in the experiment with HCT-116 colon; 27.9 nM with HL-60(TB) leukemia; 55.5 nM in the experiment with IGROV1 ovarian; 44.1 nM with KM12 colon; 0.0666 µM in the experiment with MALME-3M melanoma. The GI50 was 25.2 nM with RXF 393 renal, 0.0388 µM with SF-295 CNS and 817 nM in the experiment on SK-OV-3 ovarian. For the same molecule, the TGI with EKVX NSCLC was > 100 µM; with HCT-116 colon, > 100 µM; in the experiment with HL-60(TB) leukemia it was 0.0851 µM; with IGROV1 ovarian, > 100 µM; with KM12 colon, 14.1 µM; in the experiment with MALME-3M melanoma, > 100 µM. In addition, the TGI in the experiment on RXF 393 renal, with SF-295 CNS and in the experiment with SK-OV-3 ovarian was > 100 µM throughout.
As for `C=C(C)C(=O)O[C@@H]1C[C@@]2(C)O[C@@H]2C[C@H](O)/C(C)=C/[C@H]2OC(=O)C(=C)[C@@H]21`, the TGI in the experiment with EKVX NSCLC is > 100 µM; in the experiment on HCT-116 colon, > 100 µM; in the experiment with IGROV1 ovarian, > 100 µM; in the experiment on KM12 colon, > 100 µM; in the experiment on MALME-3M melanoma it was 57.2 µM; in the experiment on RXF 393 renal it was > 100 µM. Moreover, the TGI in the experiment with SF-295 CNS, in the experiment on SK-OV-3 ovarian and in the experiment with SNB-75 CNS was > 100 µM throughout.
For the molecule `CN(C)c1ccc(/C=N/NC(=S)Nc2ccccc2)cc1`, the TGI in the experiment with EKVX NSCLC, in the experiment with HCT-116 colon, with IGROV1 ovarian, in the experiment on KM12 colon, in the experiment with MALME-3M melanoma and with RXF 393 renal was > 100 µM in each case. For the same molecule, the TGI in the experiment on SF-295 CNS, with SK-OV-3 ovarian and with SNB-75 CNS was > 100 µM in each case.
As to `CCOC(=O)C1Sc2ccccc2N=C1C` (configuration not stated), the TGI in the experiment with EKVX NSCLC, in the experiment with HCT-116 colon, in the experiment on HL-60(TB) leukemia, in the experiment on IGROV1 ovarian, with KM12 colon and with MALME-3M melanoma was > 100 µM throughout. In addition, the TGI in the experiment with RXF 393 renal, with SF-295 CNS and in the experiment on SNB-75 CNS was > 100 µM throughout.
